Measured values published in US20250034147A1, “MDM2 DEGRADERS AND USES THEREOF” (Kymera Therapeutics, Inc., priority 2021, published 2025).

Experiments:
HiBiT-tagged MDM2 = target: T1, HiBiT-tagged MDM2 (Homo sapiens, UniProt Q00987); test: MDM2 HiBit HEK293T degradation; assay type: cell-based; details: HEK293T cells stably expressing C-terminally HiBiT-tagged MDM2; 4 h; read-out: MDM2 HiBit HEK293T degradation 4 h: Average external-Abs DC50
T1 construct: expressed in transfected cells
How it was run: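 Degradation was measured in HEK293T cells stably expressing C-terminally HiBiT-tagged MDM2, a pool selected with 1 microgram/ml puromycin. A MDM2 tool degrader and HaloPROTAC3 served as positive controls. Potency is reported as DC50 in letter bins.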

RS411 cells = test: Cell Viability CTG Assay; assay type: cell-based; details: Homo sapiens, RS4-11, CellTiter Glo (CTG) cell viability, read-out: Average external-IC50
Description: Compounds or DMSO 60 nL were stamped to the cell plate as the platemap. RS411 cells were centrifuged at 800 rpm for 5 min, suspended with culture medium, and counted with Countess (Invitrogen). The cell density was adjusted to the recommend information. 30 μL of cell solution (1000 cells/well) was added to the assay plate as the platemap and 30 μL of media was added to column 2 and column 23 as the platemap. The plate was spun down briefly. The final concentration of the compounds started at 10 μM (3 fold dilution and 11 doses) and final DMSO concentration was 0.2%. The plate was spun down briefly and incubated at 37° C., 5% CO2 for 1 day. […] 30 μL CellTiter Glo reagent was added to each well and the plate was centrifuged at 1000 rpm for 30 sec. The plate was shaken for 1 min and centrifuged at 1000 rpm for 30 sec. The plate was incubated at RT for 10 min to stabilize the luminescent signal and the luminescence was read by EnVision.
The letter codes for IC50 indicate the concentration of compound required to affect 50% of cells: A (<0.005 μM), B (0.005-0.05 μM), C (0.05-0.5 μM), and D (>0.5 μM).

T1 sequence (Q00987 whole entry): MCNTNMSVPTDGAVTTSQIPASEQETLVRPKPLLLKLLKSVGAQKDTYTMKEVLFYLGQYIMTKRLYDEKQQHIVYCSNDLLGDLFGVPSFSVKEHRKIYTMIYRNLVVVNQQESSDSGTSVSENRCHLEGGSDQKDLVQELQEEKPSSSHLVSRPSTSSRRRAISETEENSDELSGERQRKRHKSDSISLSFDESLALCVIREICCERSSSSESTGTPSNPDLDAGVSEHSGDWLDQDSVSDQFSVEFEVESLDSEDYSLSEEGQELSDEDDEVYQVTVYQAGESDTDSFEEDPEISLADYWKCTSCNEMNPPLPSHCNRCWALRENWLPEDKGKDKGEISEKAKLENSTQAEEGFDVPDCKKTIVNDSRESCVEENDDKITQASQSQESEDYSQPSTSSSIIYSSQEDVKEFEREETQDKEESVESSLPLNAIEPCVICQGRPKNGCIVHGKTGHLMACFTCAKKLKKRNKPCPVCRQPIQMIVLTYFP

Cn1c(=O)n(C2CCC(=O)NC2=O)c2ccc(CCCC3(C(=O)O)CCN(C[C@H]4CC[C@H](NC(=O)[C@@H]5NC6(CCCCC6)[C@@]6(C(=O)Nc7cc(Cl)ccc76)[C@H]5c5cccc(Cl)c5F)CC4)CC3)cc21 (some centres unmarked) [I-38]
DC50 (HiBiT-tagged MDM2): < 10 nM | IC50 (RS411 cells): 5 to 50 nM

Cn1c(=O)n(C2CCC(=O)NC2=O)c2ccc(C3CCN(CCCN4CCC(NC(=O)[C@@H]5NC6(CCCCC6)[C@@]6(C(=O)Nc7cc(Cl)ccc76)[C@H]5c5cccc(Cl)c5F)CC4)CC3)cc21 (some centres unmarked) [I-39]
DC50 (HiBiT-tagged MDM2): < 10 nM | IC50 (RS411 cells): 5 to 50 nM

O=C1CCC(n2c(=O)n(CCP(=O)(O)O)c3cc(C4CCN(C(=O)[C@H]5CC[C@H](NC(=O)[C@@H]6NC7(CCCCC7)[C@@]7(C(=O)Nc8cc(Cl)ccc87)[C@H]6c6cccc(Cl)c6F)CC5)CC4)ccc32)C(=O)N1 (some centres unmarked) [I-40]
DC50 (HiBiT-tagged MDM2): 10 to 100 nM | IC50 (RS411 cells): 50 to 500 nM

Cn1c(=O)n(C2CCC(=O)NC2=O)c2ccc(CCN3CCN(C(=O)[C@@H]4CC[C@@H](NC(=O)[C@@H]5NC6(CCCCC6)[C@@]6(C(=O)Nc7cc(Cl)ccc76)[C@H]5c5cccc(Cl)c5F)CO4)CC3)cc21 (some centres unmarked) [I-41]
DC50 (HiBiT-tagged MDM2): < 10 nM | IC50 (RS411 cells): < 5 nM

O=C1CCN(c2cnc3cc(C4CCN(C(=O)[C@H]5CC[C@H](NC(=O)[C@@H]6NC7(CCCCC7)[C@@]7(C(=O)Nc8cc(Cl)ccc87)[C@H]6c6cccc(Cl)c6F)CC5)CC4)ccn23)C(=O)N1 [I-42]
DC50 (HiBiT-tagged MDM2): < 10 nM | IC50 (RS411 cells): < 5 nM

CN1[C@@H](C(=O)N[C@H]2CC[C@H](CN3CCC4(CC3)CN(CCc3ccc5c(c3)n(C)c(=O)n5C3CCC(=O)NC3=O)C4)CC2)[C@H](c2ccnc(Cl)c2F)[C@]2(C(=O)Nc3cc(Cl)ccc32)C12CCC(C)(C)CC2 (some centres unmarked) [I-43]
DC50 (HiBiT-tagged MDM2): < 10 nM | IC50 (RS411 cells): < 5 nM

Cn1c(=O)n(C2CCC(=O)NC2=O)c2ccc(C#CCC3(C(=O)O)CCN(C(=O)[C@H]4CC[C@H](NC(=O)[C@@H]5NC6(CCCCC6)[C@@]6(C(=O)Nc7cc(Cl)ccc76)[C@H]5c5cccc(Cl)c5F)CC4)CC3)cc21 (some centres unmarked) [I-44]
DC50 (HiBiT-tagged MDM2): 10 to 100 nM | IC50 (RS411 cells): < 5 nM

O=C1CCN(c2cnc3c(C4CCN(C(=O)[C@H]5CC[C@H](NC(=O)[C@@H]6NC7(CCCCC7)[C@@]7(C(=O)Nc8cc(Cl)ccc87)[C@H]6c6cccc(Cl)c6F)CC5)CC4)cccn23)C(=O)N1 [I-45]
DC50 (HiBiT-tagged MDM2): < 10 nM | IC50 (RS411 cells): 5 to 50 nM

Cn1c(=O)n(C2CCC(=O)NC2=O)c2ccc(C#CC3CCN(C[C@H]4CC[C@H](NC(=O)[C@@H]5NC6(CCCCC6)[C@@]6(C(=O)Nc7cc(Cl)ccc76)[C@H]5c5cccc(Cl)c5F)CC4)C(=O)C3)cc21 (some centres unmarked) [I-46]
DC50 (HiBiT-tagged MDM2): < 10 nM | IC50 (RS411 cells): 5 to 50 nM

Cn1c(=O)n(C2CCC(=O)NC2=O)c2ccc(CN3CC(OC4CCN(C[C@H]5CC[C@H](NC(=O)[C@@H]6NC7(CCCCC7)[C@@]7(C(=O)Nc8cc(Cl)ccc87)[C@H]6c6cccc(Cl)c6F)CC5)CC4)C3)cc21 (stereo partly drawn) [I-47, (3′R,4′S,5′S)-6″-chloro-4′-(3-chloro-2-fluorophenyl)-N-((1r,4S)-4-((4-((1-((1-(2,6-dioxopiperidin-3-yl)-3-methyl-2-oxo-2,3-dihydro-1H-benzo[d]imidazol-5-yl)methyl)azetidin-3-yl)oxy)piperidin-1-yl)methyl)cyclohexyl)-2″-oxodispiro[cyclohexane-1,2′-pyrrolidine-3′,3″-indoline]-5′-carboxamide]
DC50 (HiBiT-tagged MDM2): < 10 nM | IC50 (RS411 cells): < 5 nM

COc1cc2c(cc1OC(C)C)[C@H](c1ccc(Cl)cc1)N(c1ccc(N(C)CC(=O)N3CCN(CCCCCCc4ccc5c(c4)n(C)c(=O)n5C4CCC(=O)NC4=O)CC3)cc1)C(=O)C2 (some centres unmarked) [I-48]
DC50 (HiBiT-tagged MDM2): > 1000 nM | IC50 (RS411 cells): > 500 nM

Cn1c(=O)n(C2CCC(=O)NC2=O)c2ccc(CN3CCC(OC4CN(C[C@H]5CC[C@H](NC(=O)[C@@H]6NC7(CCCCC7)[C@@]7(C(=O)Nc8cc(Cl)ccc87)[C@H]6c6cccc(Cl)c6F)CC5)C4)CC3)cc21 (some centres unmarked) [I-49]
DC50 (HiBiT-tagged MDM2): < 10 nM | IC50 (RS411 cells): 5 to 50 nM

CC1(C)CCC2(CC1)NC(C(=O)NC1CCC(CN3CCN(CC#Cc4ccn5c(N6CCC(=O)NC6=O)cnc5c4)CC3)CC1)[C@H](c1ccnc(Cl)c1F)[C@]21C(=O)Nc2cc(Cl)ccc21 (some centres unmarked) [I-50]
DC50 (HiBiT-tagged MDM2): < 10 nM | IC50 (RS411 cells): 5 to 50 nM

COc1cc2c(cc1OC(C)C)[C@H](c1ccc(Cl)cc1)N(c1ccc(N(C)CCC3CCN(CCCCC#Cc4ccn5c(N6CCC(=O)NC6=O)cnc5c4)CC3)cc1)C(=O)C2 [I-51]
DC50 (HiBiT-tagged MDM2): 10 to 100 nM | IC50 (RS411 cells): 50 to 500 nM

Cn1c(=O)n(C2CCC(=O)NC2=O)c2ccc(C3CCN(C[C@H]4CC[C@H](NC(=O)[C@@H]5NC6(CCCCC6)[C@@]6(C(=O)Nc7cc(Cl)ccc76)[C@H]5c5cccc(Cl)c5F)CC4)CC3(F)F)cc21 (some centres unmarked) [I-52]
DC50 (HiBiT-tagged MDM2): < 10 nM | IC50 (RS411 cells): < 5 nM

COc1cc2c(cc1OC(C)C)[C@H](c1ccc(Cl)cc1)N(c1ccc(N(C)CC3CCN(CCCc4ccc5c(c4)n(C)c(=O)n5C4CCC(=O)NC4=O)CC3)cc1)C(=O)C2 (some centres unmarked) [I-53]
DC50 (HiBiT-tagged MDM2): 10 to 100 nM | IC50 (RS411 cells): < 5 nM

Cn1c(=O)n(C2CCC(=O)NC2=O)c2ccc(CCCN3CCN(C[C@H]4CC[C@H](NC(=O)[C@@H]5NC6(CCCCC6)[C@@]6(C(=O)Nc7cc(Cl)ccc76)[C@H]5c5cccc(Cl)c5F)CC4)C(=O)C3)cc21 (some centres unmarked) [I-54]
DC50 (HiBiT-tagged MDM2): < 10 nM | IC50 (RS411 cells): 5 to 50 nM

Cc1ccc2c(c1)NC(=O)[C@]21[C@@H](c2cccc(C)c2F)[C@H](C(=O)N[C@H]2CC[C@H](C(=O)N3CCN(CCCc4ccc5c(c4)n(C)c(=O)n5C4CCC(=O)NC4=O)CC3)CC2)NC12CCCCC2 (some centres unmarked) [I-55]
DC50 (HiBiT-tagged MDM2): 10 to 100 nM | IC50 (RS411 cells): > 500 nM

Cn1c(=O)n(C2CCC(=O)NC2=O)c2ccc(CCCN3CCN(C[C@H]4CC[C@H](NC(=O)[C@@H]5NC6(CCC(C)(C)CC6)[C@@]6(C(=O)Nc7cc(Cl)ccc76)[C@H]5c5ccnc(Cl)c5F)CC4)C(=O)C3)cc21 (some centres unmarked) [I-56]
DC50 (HiBiT-tagged MDM2): < 10 nM | IC50 (RS411 cells): < 5 nM

Cc1ccc2c(c1)NC(=O)[C@]21[C@@H](c2cccc(Cl)c2F)[C@H](C(=O)N[C@H]2CC[C@H](C(=O)N3CCN(CCCc4ccc5c(c4)n(C)c(=O)n5C4CCC(=O)NC4=O)CC3)CC2)NC12CCCCC2 (some centres unmarked) [I-57]
DC50 (HiBiT-tagged MDM2): < 10 nM | IC50 (RS411 cells): < 5 nM

Cn1c(=O)n(C2CCC(=O)NC2=O)c2ccc(C(=O)N3CC(OC4CN(C[C@H]5CC[C@H](NC(=O)[C@@H]6NC7(CCCCC7)[C@@]7(C(=O)Nc8cc(Cl)ccc87)[C@H]6c6cccc(Cl)c6F)CC5)C4)C3)cc21 (some centres unmarked) [I-58]
DC50 (HiBiT-tagged MDM2): < 10 nM | IC50 (RS411 cells): 5 to 50 nM

Cn1c(=O)n(C2CCC(=O)NC2=O)c2ccc(CN3CC(OC4CN(C[C@H]5CC[C@H](NC(=O)[C@@H]6NC7(CCCCC7)[C@@]7(C(=O)Nc8cc(Cl)ccc87)[C@H]6c6cccc(Cl)c6F)CC5)C4)C3)cc21 (some centres unmarked) [I-59]
DC50 (HiBiT-tagged MDM2): < 10 nM | IC50 (RS411 cells): 5 to 50 nM

COc1cc2c(cc1OC(C)C)[C@H](c1ccc(Cl)cc1)N(c1ccc(N(C)C[C@H]3CC[C@H](N4CCN(Cc5ccc6c(c5)n(C)c(=O)n6C5CCC(=O)NC5=O)CC4)CC3)cc1)C(=O)C2 (some centres unmarked) [I-60]
DC50 (HiBiT-tagged MDM2): < 10 nM | IC50 (RS411 cells): < 5 nM

COc1cc2c(cc1OC(C)C)C(c1ccc(Cl)cc1)N(C1CCC(N(C)CC3CCN(CCCCCCc4ccc5c(c4)n(C)c(=O)n5C4CCC(=O)NC4=O)CC3)CC1)C(=O)C2 (centres unmarked) [I-61]
DC50 (HiBiT-tagged MDM2): > 1000 nM | IC50 (RS411 cells): > 500 nM

COc1cc2c(cc1OC(C)C)[C@H](c1ccc(Cl)cc1)N(c1ccc(N(C)CC3CCN(c4ccc5c(c4)n(C)c(=O)n5C4CCC(=O)NC4=O)CC3)cc1)C(=O)C2 (some centres unmarked) [I-62]
DC50 (HiBiT-tagged MDM2): < 10 nM | IC50 (RS411 cells): 5 to 50 nM

COc1cc2c(cc1OC(C)C)[C@H](c1ccc(Cl)cc1)N(c1ccc(N(C)C[C@H]3CC[C@H](N4CCN(CCc5cccc6c5n(C)c(=O)n6C5CCC(=O)NC5=O)CC4)CC3)cc1)C(=O)C2 (some centres unmarked) [I-63]
DC50 (HiBiT-tagged MDM2): < 10 nM | IC50 (RS411 cells): 5 to 50 nM

CC(C)[C@@H](CS(=O)(=O)C(C)C)N1C(=O)[C@@](C)(CC(=O)N[C@H]2CC[C@H](CN3CCN(CCCc4ccc5c(c4)n(C)c(=O)n5C4CCC(=O)NC4=O)CC3)CC2)C[C@H](c2cccc(Cl)c2)[C@H]1c1ccc(Cl)cc1 (some centres unmarked) [I-64]
DC50 (HiBiT-tagged MDM2): 10 to 100 nM | IC50 (RS411 cells): 5 to 50 nM

COc1cc2c(cc1OC(C)C)[C@H](c1ccc(Cl)cc1)N(c1ccc(N(C)C[C@H]3CC[C@H](N4C[C@@H]5C[C@H]4CN5CCc4ccc5c(c4)n(C)c(=O)n5C4CCC(=O)NC4=O)CC3)cc1)C(=O)C2 (some centres unmarked) [I-65]
DC50 (HiBiT-tagged MDM2): 10 to 100 nM | IC50 (RS411 cells): 5 to 50 nM

CC1(C)CCC2(CC1)N[C@@H](C(=O)N[C@H]1CC[C@H](CN3CCN(CCCc4cccn5c(N6CCC(=O)NC6=O)cnc45)CC3)CC1)[C@H](c1ccnc(Cl)c1F)[C@]21C(=O)Nc2cc(Cl)ccc21 [I-67]
DC50 (HiBiT-tagged MDM2): < 10 nM | IC50 (RS411 cells): 5 to 50 nM

Cn1c(=O)n(C2CCC(=O)NC2=O)c2ccc(CN3CCN(C[C@H]4CC[C@H](NC(=O)[C@@H]5NC6(CCCCC6)[C@@]6(C(=O)Nc7cc(Cl)ccc76)[C@H]5c5cccc(Cl)c5F)CC4)CC3)cc21 (some centres unmarked) [I-69]
DC50 (HiBiT-tagged MDM2): < 10 nM | IC50 (RS411 cells): 5 to 50 nM

Cn1c(=O)n(C2CCC(=O)NC2=O)c2ccc(N3CCN(CC4CCN(C[C@H]5CC[C@H](NC(=O)[C@@H]6NC7(CCCCC7)[C@@]7(C(=O)Nc8cc(Cl)ccc87)[C@H]6c6cccc(Cl)c6F)CC5)CC4)CC3)cc21 (some centres unmarked) [I-70]
DC50 (HiBiT-tagged MDM2): < 10 nM | IC50 (RS411 cells): < 5 nM
